Reference: the NIST ThermoML archive (doi:10.1016/j.fluid.2014.06.023)
Numbers after ± are expanded uncertainties.

Tests used:
[1] = 293.15 K, 101.33 kPa, Pycnometric method
[2] = refractive index (Na D-line) (dimensionless); conditions: 293.15 K; 101.33 kPa; Crystal; Standard Abbe refractometry

mass density ([1]; Crystal) [kg/m3]	refractive index [2]	mass density ([1]; Liquid) [kg/m3]	Structure (SMILES)
1527 ± 12	1.638 ± 0.0008	–	Cl.N [ammonium chloride (NH4Cl)]
–	–	810 ± 12	CCCCO [butan-1-ol]
